Results taken from ChEMBL document CHEMBL1201862, “PubChem BioAssay data set” (2004).
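Method: 48-hour compound exposure of cells in 96-well plates, five concentrations, linear interpolation of endpoints. Here, GI50 denotes the concentration required for 50% inhibition of growth.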 Active and inactive are the calls of the source. Cut-off read from the data, not from the text of the source: active = GI50 up to about 1.1 µM and inactive = higher.

How the values were obtained:
Assay in all cases: inhibition of tumour cell growth, NCI panel, 48 h
MOLT-4 = system: MOLT-4
NCI-H23 = system: NCI-H23
MDA-N = system: MDA-N
Hs-578T = system: Hs-578T
OVCAR-3 = system: OVCAR-3
KM12 = system: KM12
U-251 = system: U-251
UACC-257 = system: UACC-257
SK-MEL-5 = system: SK-MEL-5
HT-29 = system: HT-29
NCI-H226 = system: NCI-H226
SK-MEL-2 = system: SK-MEL-2
BT-549 = system: BT-549
HOP-62 = system: HOP-62
HCT-116 = system: HCT-116
CAKI-1 = system: CAKI-1
IGROV-1 = system: IGROV-1
OVCAR-5 = system: OVCAR-5
MDA-MB-435 = system: MDA-MB-435
UO-31 = system: UO-31
UACC-62 = system: UACC-62
A549 = system: A549
TK-10 = system: TK-10
COLO 205 = system: COLO 205
HCC 2998 = system: HCC 2998
RXF 393 = system: RXF 393
SW-620 = system: SW-620
CCRF-CEM = system: CCRF-CEM
MCF7 = system: MCF7
NCI/ADR-RES = system: NCI/ADR-RES
DU-145 = system: DU-145
M14 = system: M14
SR = system: SR
HOP-92 = system: HOP-92
Malme-3M = system: Malme-3M
SK-MEL-28 = system: SK-MEL-28
SK-OV-3 = system: SK-OV-3
OVCAR-4 = system: OVCAR-4
SN12C = system: SN12C
ACHN = system: ACHN
MDA-MB-231 = system: MDA-MB-231
K562 = system: K562
RPMI-8226 = system: RPMI-8226
A498 = system: A498
SF-295 = system: SF-295
SNB-75 = system: SNB-75
OVCAR-8 = system: OVCAR-8
T47D = system: T47D
NCI-H460 = system: NCI-H460
SF-539 = system: SF-539
HCT-15 = system: HCT-15
PC-3 = system: PC-3
SF-268 = system: SF-268
786-0 = system: 786-0
NCI-H522 = system: NCI-H522

Which GI50 (MOLT-4) does the source give for `CC(=O)N1N=C(c2c(O)ccc3ccccc23)CC1C(=O)c1ccco1` (stereo not given) here?
The GI50 was 13.2 µM (inactive).

What about the GI50 (NCI-H23) of the same compound?
The GI50 was 22.2 µM (inactive).

And the GI50 (MDA-N)?
The GI50 was 23.9 µM (inactive).

And the GI50 (Hs-578T)?
Its GI50 is 34.5 µM (inactive).

What about the GI50 (OVCAR-3) of the same compound?
Its GI50 is 17.7 µM (inactive).

What about the GI50 (KM12) of the same compound?
Its GI50 is 28.1 µM (inactive).

What about the GI50 (U-251) of the same compound?
The GI50 was 34.3 µM (inactive).

What about the GI50 (UACC-257) of the same compound?
Its GI50 is 31.6 µM (inactive).

And the GI50 (SK-MEL-5)?
The GI50 was 22.8 µM (inactive).

And the GI50 (HT-29)?
Its GI50 is 33.8 µM (inactive).

What about the GI50 (NCI-H226) of the same compound?
Its GI50 is 77.1 µM (inactive).

And the GI50 (SK-MEL-2)?
The GI50 was 16.6 µM (inactive).

And the GI50 (BT-549)?
The GI50 was 18.4 µM (inactive).

And the GI50 (HOP-62)?
Its GI50 is 29.8 µM (inactive).

And the GI50 (HCT-116)?
The GI50 was 20.4 µM (inactive).

And the GI50 (CAKI-1)?
Its GI50 is 42.6 µM (inactive).

And the GI50 (IGROV-1)?
Its GI50 is 27.1 µM (inactive).

And the GI50 (OVCAR-5)?
Its GI50 is 55 µM (inactive).

What about the GI50 (MDA-MB-435) of the same compound?
The GI50 was 28.5 µM (inactive).

What about the GI50 (UO-31) of the same compound?
Its GI50 is 21.6 µM (inactive).

And the GI50 (UACC-62)?
Its GI50 is 16.4 µM (inactive).

And the GI50 (A549)?
The GI50 was 28.2 µM (inactive).

What about the GI50 (TK-10) of the same compound?
The GI50 was 60.3 µM (inactive).

And the GI50 (COLO 205)?
Its GI50 is 24.7 µM (inactive).

What about the GI50 (HCC 2998) of the same compound?
Its GI50 is 50.1 µM (inactive).

What about the GI50 (RXF 393) of the same compound?
The GI50 was 25.1 µM (inactive).

And the GI50 (SW-620)?
The GI50 was 33.7 µM (inactive).

And the GI50 (CCRF-CEM)?
The GI50 was 14.9 µM (inactive).

What about the GI50 (MCF7) of the same compound?
The GI50 was 14.5 µM (inactive).

And the GI50 (NCI/ADR-RES)?
Its GI50 is 28.2 µM (inactive).

And the GI50 (DU-145)?
Its GI50 is 47.4 µM (inactive).

And the GI50 (M14)?
The GI50 was 22.4 µM (inactive).

What about the GI50 (SR) of the same compound?
The GI50 was 13.6 µM (inactive).

What about the GI50 (HOP-92) of the same compound?
Its GI50 is 52.7 µM (inactive).

What about the GI50 (Malme-3M) of the same compound?
Its GI50 is 30.5 µM (inactive).

What about the GI50 (SK-MEL-28) of the same compound?
Its GI50 is 30.9 µM (inactive).

And the GI50 (SK-OV-3)?
The GI50 was 48.6 µM (inactive).

What about the GI50 (OVCAR-4) of the same compound?
Its GI50 is 36 µM (inactive).

And the GI50 (SN12C)?
The GI50 was 32.4 µM (inactive).

What about the GI50 (ACHN) of the same compound?
The GI50 was 33 µM (inactive).

What about the GI50 (MDA-MB-231) of the same compound?
The GI50 was 18.4 µM (inactive).

And the GI50 (K562)?
The GI50 was 16.9 µM (inactive).

And the GI50 (RPMI-8226)?
The GI50 was 14 µM (inactive).

And the GI50 (A498)?
The GI50 was 41.5 µM (inactive).

And the GI50 (SF-295)?
Its GI50 is 35.2 µM (inactive).

What about the GI50 (SNB-75) of the same compound?
The GI50 was 17.9 µM (inactive).

What about the GI50 (OVCAR-8) of the same compound?
Its GI50 is 39 µM (inactive).

And the GI50 (T47D)?
The GI50 was 39.8 µM (inactive).

What about the GI50 (NCI-H460) of the same compound?
Its GI50 is 34.5 µM (inactive).

And the GI50 (SF-539)?
Its GI50 is 21.1 µM (inactive).

And the GI50 (HCT-15)?
The GI50 was 37.9 µM.

What about the GI50 (PC-3) of the same compound?
The GI50 was 23 µM (inactive).

What about the GI50 (SF-268) of the same compound?
Its GI50 is 31.1 µM (inactive).

And the GI50 (786-0)?
Its GI50 is 30.8 µM (inactive).

And the GI50 (NCI-H522)?
The GI50 was 28.2 µM (inactive).
